Experimental data: PMC12447755, “β-Lactamase cleavable antimicrobial peptide–drug conjugates” (Chemical Science, 2025)
Where two headings read alike, the source gives them in different places. Where a SMILES comes first, the peptide text is derived from it. Where no end group is shown, it is not given here.

Key:
[1] = tested on: P. aeruginosa strain PAO1
[2] = tested on: P. aeruginosa strain PA14
[3] = tested on: Pseudomonas aeruginosa strain PAO1; assay: Initial susceptibility testing at a fixed concentration; assay type: cell-based; parameters: key: Tick (✓) represents OD600 comparable to no-growth control; cross (✗) represents OD600 comparable to growth control without any peptide; conditions: 256 μg mL−1 of peptide, overnight incubation, OD600 compared with growth and no-growth controls
[4] = Table S5, altered linking region between peptide and cephalosporin
[5] = Table 2, broth microdilution in MH medium, 37 °C, 16 h, MTT and OD600, triplicate

Molecule	PAO1 MIC ([1]; PAO1, 18 h) [µM]	PA14 MIC ([2]; PA14, 18 h) [µM]	Inh (inhibition) [3]	also measured
CC(=O)OCC1=C(C(=O)O)N2C(=O)[C@@H](NC(=O)CCCNc3nc4cc(n3)CCSC[C@H](N)C(=O)N[C@@H](Cc3ccccc3)C(=O)N[C@@H](C)C(=O)N[C@@H](CCCCN)C(=O)N[C@@H](Cc3c[nH]c5ccccc35)C(=O)N[C@@H](C)C(=O)N[C@@H](Cc3ccccc3)C(=O)N[C@H](C(=O)N[C@@H](Cc3c[nH]c5ccccc35)C(=O)N[C@@H](CC(C)C)C(=O)N[C@@H](CCCCN)C(=O)N[C@@H](CCCCN)C(N)=O)CSCC4)[C@H]2SC1 [P11-8]	> 32	> 32		
C[C@@H]1NC(=O)[C@H](Cc2c[nH]c3ccccc23)NC(=O)[C@H](CCCCN)NC(=O)[C@@H](NC(=O)[C@@H](N)Cc2ccccc2)CSCCc2cc(nc(NCCCC(=O)N[C@@H](C(=O)N[C@@H]3C(=O)N4C(C(=O)O)=C(COC(=O)N5CCN(c6cc7c(cc6F)c(=O)c(C(=O)O)cn7C6CC6)CC5)CS[C@H]34)c3ccccc3)n2)CCSC[C@@H](C(=O)N[C@@H](CCCCN)C(=O)N[C@@H](CCCCN)C(N)=O)NC(=O)[C@H](Cc2c[nH]c3ccccc23)NC(=O)[C@H](CCCCN)NC(=O)[C@H](Cc2ccccc2)NC1=O [P2-21]	27	13		PAO1 MIC [1, 4]: 64 µg/mL; PA14 MIC ([2]; Table S5): 32 µg/mL
CC[C@H](C)CCCCC(=O)N[C@@H](CCN)C(=O)N[C@H](C(=O)N[C@@H](CCN)C(=O)N[C@H]1CCNC(=O)[C@H]([C@@H](C)O)NC(=O)[C@H](CCN)NC(=O)[C@H](CCN)NC(=O)[C@H](CC(C)C)NC(=O)[C@@H](Cc2ccccc2)NC(=O)[C@H](CCN)NC1=O)[C@@H](C)O [Polymyxin B, reference compound] (HELM PEPTIDE1{[CC[C@H](C)CCCCC(=O)[*:2]].[Dab].T.[Dab].[Dab].[Dab].[dF].L.[Dab].[Dab].T}$PEPTIDE1,PEPTIDE1,5:R3-11:R2$$$V2.0; N-terminus assumed; bridges inferred)	0.83			MIC for PAO1 ([1]; PAO1, 18 h): 1.7 µM; PAO1 MIC ([1]; Table S3, initial MIC values): 2 µg/mL; PAO1 MIC ([1]; Table S4, cephalosporin-based staple 8 at different positions): 1 µg/mL; MIC for PA14 ([2]; PA14, 18 h): 0.83 µM; PA14 MIC ([2]; Table S3, initial MIC values): 1 µg/mL; PA14 MIC ([2]; Table S4): 0.83 µM
CC[C@H](C)[C@H](NC(=O)[C@H](CCCCN)NC(=O)[C@H](CCCCN)NC(=O)[C@@H]1CSCCc2cc(nc(NCCCc3ccccc3)n2)CCSC[C@H](NC(=O)[C@H](CC(C)C)NC(=O)[C@H](CCCNC(=N)N)NC(=O)[C@H](CCCNC(=N)N)NC(=O)[C@H](Cc2ccccc2)NC(=O)[C@@H](N)CCCNC(=N)N)C(=O)N[C@@H](CCCCN)C(=O)N[C@@H](CCCCN)C(=O)N[C@@H](Cc2c[nH]c3ccccc23)C(=O)N[C@@H](CCCNC(=N)N)C(=O)N[C@@H](CCCCN)C(=O)N[C@@H](CCCNC(=N)N)C(=O)N1)C(N)=O [P4-1] (HELM PEPTIDE1{R.F.R.R.L.C.K.K.W.R.K.R.C.K.K.I.[am]}|CHEM1{[c1ccc(CCCNc2nc(CC[*:1])cc(CC[*:2])n2)cc1]}$PEPTIDE1,CHEM1,6:R3-1:R1|PEPTIDE1,CHEM1,13:R3-1:R2$$$V2.0)			✓	
C[C@@H]1NC(=O)[C@H](Cc2c[nH]c3ccccc23)NC(=O)[C@H](CCCCN)NC(=O)[C@@H](NC(=O)[C@@H](N)Cc2ccccc2)CSCCc2cc(nc(NCCCC(=O)NCCCCCC(=O)N[C@@H]3C(=O)N4C(C(=O)O)=C(COC(=O)N5CCN(c6cc7c(cc6F)c(=O)c(C(=O)O)cn7C6CC6)CC5)CS[C@H]34)n2)CCSC[C@@H](C(=O)N[C@@H](CCCCN)C(=O)N[C@@H](CCCCN)C(N)=O)NC(=O)[C@H](Cc2c[nH]c3ccccc23)NC(=O)[C@H](CCCCN)NC(=O)[C@H](Cc2ccccc2)NC1=O [P2-20]	13	13		PAO1 MIC [1, 4]: 32 µg/mL; PA14 MIC ([2]; Table S5): 32 µg/mL
RFRRLRKKWRKRLKKI-NH2 [P4a, reference compound]			✓	
CC(=O)OCC1=C(C(=O)O)N2C(=O)[C@@H](NC(=O)CCCNc3nc4cc(n3)CCSC[C@H](N)C(=O)N[C@@H](C)C(=O)N[C@@H](CCCCN)C(=O)N[C@@H](Cc3c[nH]c5ccccc35)C(=O)N[C@@H](C)C(=O)N[C@@H](Cc3ccccc3)C(=O)N[C@@H](CCCCN)C(=O)N[C@H](C(=O)N[C@@H](CC(C)C)C(=O)N[C@@H](CCCCN)C(=O)N[C@@H](CCCCN)C(N)=O)CSCC4)[C@H]2SC1 [P8-8]	> 35	> 35		
CC[C@H](C)[C@H](NC(=O)[C@H](CCCCN)NC(=O)[C@H](CCCCN)NC(=O)[C@H](CS)NC(=O)[C@H](CCCNC(=N)N)NC(=O)[C@H](CCCCN)NC(=O)[C@H](CCCNC(=N)N)NC(=O)[C@H](Cc1c[nH]c2ccccc12)NC(=O)[C@H](CCCCN)NC(=O)[C@H](CCCCN)NC(=O)[C@H](CS)NC(=O)[C@H](CC(C)C)NC(=O)[C@H](CCCNC(=N)N)NC(=O)[C@H](CCCNC(=N)N)NC(=O)[C@H](Cc1ccccc1)NC(=O)[C@@H](N)CCCNC(=N)N)C(N)=O [P4] (H-RFRRLCKKWRKRCKKI-NH2)			✗	
CC(=O)N[C@H](C(=O)N[C@@H](CC(C)C)C(=O)N[C@@H](CCCCN)C(=O)N[C@@H](CCC(N)=O)C(=O)N[C@@H](Cc1ccccc1)C(=O)N[C@H]1CSCCc2cc(nc(NCCCc3ccccc3)n2)CCSC[C@@H](C(=O)N[C@H](C(=O)N[C@@H](CCCCN)C(N)=O)C(C)C)NC(=O)[C@H](Cc2c[nH]c3ccccc23)NC(=O)[C@H](CCCCN)NC(=O)CNC(=O)[C@H](C(C)C)NC(=O)CNC(=O)[C@H](CCCCN)NC1=O)[C@@H](C)O [P1-1] (HELM PEPTIDE1{[ac].T.L.K.Q.F.C.K.G.V.G.K.W.C.V.K.[am]}|CHEM1{[c1ccc(CCCNc2nc(CC[*:1])cc(CC[*:2])n2)cc1]}$PEPTIDE1,CHEM1,7:R3-1:R1|PEPTIDE1,CHEM1,14:R3-1:R2$$$V2.0)			✗	
CC(=O)OCC1=C(C(=O)O)N2C(=O)[C@@H](NC(=O)CCCNc3nc4cc(n3)CCSC[C@H](NC(=O)[C@H](CCCCN)NC(=O)[C@H](C)NC(=O)[C@H](Cc3ccccc3)NC(=O)[C@@H](N)CCCCN)C(=O)N[C@@H](C)C(=O)N[C@@H](Cc3ccccc3)C(=O)N[C@@H](CCCCN)C(=O)N[C@@H](Cc3c[nH]c5ccccc35)C(=O)N[C@@H](CC(C)C)C(=O)N[C@@H](CCCCN)C(=O)N[C@H](C(N)=O)CSCC4)[C@H]2SC1 [P12-8]	> 33	> 33		
CC(=O)OCC1=C(C(=O)O)N2C(=O)[C@@H](NC(=O)CCCNc3nc4cc(n3)CCSC[C@H](NC(=O)[C@H](CCCCN)NC(=O)[C@H](C)NC(=O)[C@@H](N)Cc3ccccc3)C(=O)N[C@@H](C)C(=O)N[C@@H](Cc3ccccc3)C(=O)N[C@@H](CCCCN)C(=O)N[C@@H](Cc3c[nH]c5ccccc35)C(=O)N[C@@H](CC(C)C)C(=O)N[C@@H](CCCCN)C(=O)N[C@H](C(N)=O)CSCC4)[C@H]2SC1 [P10-8]	> 35	> 35		
C[C@@H]1NC(=O)[C@H](Cc2c[nH]c3ccccc23)NC(=O)[C@H](CCCCN)NC(=O)[C@@H](NC(=O)[C@@H](N)Cc2ccccc2)CSCCc2cc(nc(NCCCC(=O)N3CCN(c4cc5c(cc4F)c(=O)c(C(=O)O)cn5C4CC4)CC3)n2)CCSC[C@@H](C(=O)N[C@@H](CCCCN)C(=O)N[C@@H](CCCCN)C(N)=O)NC(=O)[C@H](Cc2c[nH]c3ccccc23)NC(=O)[C@H](CCCCN)NC(=O)[C@H](Cc2ccccc2)NC1=O [P2-12] (HELM PEPTIDE1{F.C.K.W.A.F.K.W.C.K.K.[am]}|CHEM1{[O=C(O)c1cn(C2CC2)c2cc(N3CCN(C(=O)CCCNc4nc(CC[*:1])cc(CC[*:2])n4)CC3)c(F)cc2c1=O]}$PEPTIDE1,CHEM1,2:R3-1:R1|PEPTIDE1,CHEM1,9:R3-1:R2$$$V2.0)				MIC for PAO1 [1, 5]: > 64 µg/mL; MIC for PA14 [2, 5]: > 64 µg/mL
CCCCCCCC(=O)NCC(=O)N[C@H]1CSCCc2cc(nc(NCCCc3ccccc3)n2)CCSC[C@@H](C(=O)N[C@@H](CC(C)C)C(N)=O)NC(=O)[C@H](CCCCN)NC(=O)[C@H](CCCCN)NC(=O)[C@H]([C@@H](C)CC)NC(=O)[C@H](Cc2ccccc2)NC(=O)[C@H](CCCCN)NC(=O)[C@H](CC(C)C)NC1=O [P5-1] (HELM PEPTIDE1{[CCCCCCCC(=O)[*:2]].G.C.L.K.F.I.K.K.C.L.[am]}|CHEM1{[c1ccc(CCCNc2nc(CC[*:1])cc(CC[*:2])n2)cc1]}$PEPTIDE1,CHEM1,3:R3-1:R1|PEPTIDE1,CHEM1,10:R3-1:R2$$$V2.0)			✗	
CC(C)C[C@H](NC(=O)[C@H](Cc1c[nH]cn1)NC(=O)[C@H](CCCCN)NC(=O)[C@H](CS)NC(=O)[C@H](Cc1ccc(O)cc1)NC(=O)[C@H](CC(N)=O)NC(=O)[C@H](CCC(N)=O)NC(=O)[C@@H](NC(=O)[C@H](Cc1c[nH]c2ccccc12)NC(=O)[C@@H](N)CCCCN)C(C)C)C(=O)NCC(=O)N[C@@H](CCCNC(=N)N)C(=O)N[C@@H](CCCCN)C(=O)N[C@@H](CS)C(=O)N[C@@H](Cc1c[nH]cn1)C(=O)N[C@H](C(=O)N[C@@H](CC(C)C)C(=O)N[C@@H](CCCCN)C(=O)N[C@H](C(N)=O)[C@@H](C)O)[C@@H](C)O [P6] (H-KWVQNYCKHLGRKCHTLKT-NH2)			✗	
CC(=O)OCC1=C(C(=O)O)N2C(=O)[C@@H](NC(=O)CCCNc3nc4cc(n3)CCSC[C@H](NC(=O)[C@H](Cc3c[nH]c5ccccc35)NC(=O)[C@H](CCCCN)NC(=O)[C@H](C)NC(=O)[C@@H](N)Cc3ccccc3)C(=O)N[C@@H](Cc3ccccc3)C(=O)N[C@@H](CCCCN)C(=O)N[C@@H](Cc3c[nH]c5ccccc35)C(=O)N[C@@H](CC(C)C)C(=O)N[C@@H](CCCCN)C(=O)N[C@@H](CCCCN)C(=O)N[C@H](C(N)=O)CSCC4)[C@H]2SC1 [P9-8]	> 31	31		
